Values quoted from earlier work, collected in patent publication US20250319022A1, “CONCENTRATED SOLUTIONS COMPRISING SODIUM 5,10-METHYLENE-(6R)-TETRAHYDROFOLATE” (Merck Patent GMBH, priority 2022, published 2025).

Nc1nc2c(c(=O)[nH]1)N1CN(c3ccc(C(=O)N[C@@H](CCC(=O)O)C(=O)O)cc3)C[C@H]1CN2 [5,10-methylene-(6R,S)-tetrahydrofolic acid]
purity after 7 hours (7 hours after dissolution): 84% | purity after 24 hours compared to the starting purity (% normalized purity) (24 hours following dissolution in water): 44.9% | loss of purity per hour (degradation rate) (reconstituted lyophilizate, linear regression of stability profile): 2.3 % purity per hour
